The record followed here is patent US20120141435A1, “USE OF OLIVE LEAF EXTRACTS IN A PHARMACEUTICAL COMPOSITION FOR INDUCING ANGIOGENESIS AND VASCULOGENESIS” (SANIDAD Y RESIDENCIAS 21, S.A., priority 2009, published 2012).

For this assay, the system named is 6 mm excisional wounds on the back of db/db mice. Kind of assay: Excisional wound healing in db/db mice (digital planimetry). The assay is classed as in vivo, mouse. The following applies: topical on days 0, 2, 4, 6, 8, 10e-2, 10e-5, 10e-7 m oleuropein, treated (right) and untreated (left) wound, vs PBS. Here is the method: Female db/db mice (BKS.Cg-m+/+Lepr^db) aged 10 to 12 weeks were used. They were obtained through Charles River Laboratories (Spain), the average weight of the animals upon reception was 35.64 g. Throughout the entire study, the animals were kept in animal houses particularly designed for allowing control of the animals' environment, such as relative humidity (30-70%), temperature (22±2° C.), air pressure, number of renewals and light period ( 12/12 hours of light/darkness). Access to water was “ad libitum” and the diet was a standard dry pellet diet for rats supplied by PanLab (Barcelona, Spain). After the acclimatization period, the mice were randomly distributed into the different study groups. […]
On day 0 of the experiment, two 6 mm excisional wounds were made on the back of every mouse under aseptic conditions and using surgical instruments. […] The wound healing process was tracked and evaluated throughout the experiment (see FIG. 3). […]
In order to track the wound healing, a digital planimetry method was used whereby the area of every wound was quantified. The inter-group differences have been determined by means of a two-way ANOVA statistical analysis followed by a Bonferroni post-hoc analysis. […]

For the substance VEGF, the “wound healing (wound area)” value is “healing effect”.
